# Measurements as given in patent US20190365927A1, “COMPOSITION FOR PHOTODYNAMIC THERAPY USING GENE EXPRESSING FLUORESCENT PROTEIN AND PHOTOSENSITIZER, AND PHOTODYNAMIC THERAPY METHOD USING SAME” (priority 2017, published 2019).
# Experiments:
# [1] = system: GFP+ 4T1 cells, RFP+ 4T1 cells and control 4T1 cells; assay: In vitro PDT of GFP+ and RFP+ cells with photosensitizer and red, blue or yellow light, MTT analysis; assay type: cell-based, mouse; settings: FIG. 14; for cytotoxicity in control, RFP+ and GFP+ cells: 1 μM photosensitizer
# Experimental: The cytotoxicity of RFP+ or GFP+ cells was measured by MTT analysis in the presence of Ce6 (Chlorine (e6)), rose bengal or tin ethyl etiopurpurin as photosensitizer after red light, blue light or yellow light irradiation. The specific experimental procedure is as follows.
# Specifically, Ce6 (santacruz, sc-263067), rose bengal (Sigma Aldrich, 330000-5G) or tin ethyl etiopurpurin as a photosensitizer was diluted with RPMI-1640 medium containing 10% FBS. Thus, 1 μM concentration of Ce6 (Chlorine (e6)), rose bengal or tin ethyl etiopurpurin was prepared. Further, GFP+ 4T1 cells selected in the 1-4 and RFP+ 4T1 cells selected in the 1-3 were pre-cultured at a density of 2×10^4 cells/well in 96-well, black, and clear bottom plates. The pre-cultured cells were then incubated with Ce6, rose bengal or tin ethyl etiopurpurin for 4 h. 4T1 cells without RFP or GFP introduced thereto were used as controls. After 4 hours, the cells were washed three times with PBS buffer. Then, red laser light (650 nm; radiation dose rate=2 J/cm^2) or blue laser light (488 nm; radiation dose rate=2 J/cm^2) or yellow laser light (570 nm, radiation dose rate=2 J/cm^2) was irradiated thereto for 5 seconds. After the irradiation, the fresh culture medium was added to the wells. Then, the cells were cultured again for 24 hours. MTT analysis was then performed.
# [2] = system: GFP+ 4T1 cells and RFP+ 4T1 cells; assay: Experiment using artificial skin, MTT assay; assay type: cell-based, mouse; settings: presence as well as absence of artificial skin (1 mm), 1 μM, yellow laser light, FIG. 17
# Experimental: Actual skin condition was applied. photosensitizer was applied to GFP+ cell and RFP+ cell which in turn was irradiated with light. Then, cell death was measured by MTT assay. The specific experimental procedure is as follows.
# Specifically, rose bengal and tin ethyl etiopurpurin at 1 μM concentration were produced in the same method as described in the 2-4. Then, the tin ethyl etiopurpurin was applied to RFP+ 4T1 cells selected from the 1-3. The rose bengal was applied to GFP+ 4T1 cells selected from 1-4. Then, the cells were cultured for 4 hours and washed three times with PBS buffer. Next, as shown in the schematic diagram of FIG. 16, an artificial skin tissue (AST, thickness 1 mm) (Geistlich Mucograft, Geistlich Pharma AG) was placed between the light source and the cell. Thus, the actual skin condition was established. Then, blue laser light (473 nm; radiation dose rate=2 J/cm^2) was applied to GFP+ cells for 5 seconds. Yellow laser light (580 nm; radiation dose rate=2 J/cm^2) were irradiated to RFP+ cells for 5 seconds. In 2 hours of the irradiation, the cells were washed twice with PBS buffer. MTT analysis was carried out in the same method as described in the Experimental Example 2-2. […]
# RFP+ and RFP− 4T1 cells [3] = assay: In vitro PDT with tin ethyl etiopurpurin and yellow light over irradiation time, LDH and MTT analysis; assay type: cell-based, mouse; settings: 1 μM, yellow laser light, in 2 seconds after light irradiation, FIG. 11, 12
# Experimental: The yellow light was irradiated over time, and then photo inducing death of RFP+ and RFP− cells was measured by MTT analysis under the presence of tin ethyl etiopurpurin. The specific experimental procedure is as follows.
# Specifically, tin ethyl etiopurpurin (Miravant Medical Technology Inc, USA) was diluted with RPMI-1640 medium containing 10% FBS to produce 1 μM concentration of tin ethyl etiopurpurin. Further, the RFP− or RFP+ 4T1 cells selected from the above 1-3 were pre-incubated in a 24-well plate at a density of 5×10^4 cells per well. The pre-cultured cells were then incubated with tin ethyl etiopurpurin for 4 h. After 4 hours, the cells were washed three times with PBS buffer. Then, the yellow laser light (570 nm; radiation dose rate=2 J/cm^2) was irradiated thereto for 0, 5 and 10 seconds. LDH analysis was then performed using the LDH Cytotoxicity Assay kit (Cayman Chemical Company, USA) according to the manufacturer's procedure. […] The absorbance was measured at 490 nm using a plate reader.
# Further, the RFP− or RFP+ 4T1 cells selected from the 1-3 using the same method as described above were subjected to the yellow laser light (570 nm; radiation dose rate=2J/cm^2) for 0, 1, 2, 5, 7, or 10 secs. […] The absorbance of the reaction solution was measured at 570 nm. Cell viability was calculated by the following equation: […]
# RFP+ and RFP− 4T1 cells [4] = assay: In vitro PDT with varying tin ethyl etiopurpurin concentration, MTT analysis; assay type: cell-based, mouse; settings: 0, 0.5, 1 and 2 μM, yellow laser light 5 seconds, FIG. 13
# Experimental: After irradiation with yellow light, the photo inducing death of RFP+ and RFP− cells was measured by MTT analysis under the conditions of varying tin ethyl etiopurpurin concentrations. The specific experimental procedure is as follows.
# Specifically, tin ethyl etiopurpurin was produced at 0, 0.5, 1 and 2 μM concentrations in the same method as described above. Then, the cells were cultured for 4 hours with RFP− or RFP+ 4T1 cells selected from the 1-3. MTT analysis was performed after irradiation of yellow laser light (570 nm; radiation dose rate=2 J/cm^2) thereto for 5 seconds.
# [5] = system: GFP+ A549, RFP+ A549 and YFP+ A549 cells; assay: In vitro PDT of GFP+, RFP+ and YFP+ cells with photosensitizer, MTT analysis; assay type: cell-based, human; settings: 1 μM, yellow laser light (570 nm), FIG. 21, 22
# Experimental: Photo inducing death of GFP+, RFP+, and YFP+ cells via the photosensitizer was measured by MTT analysis. The specific experimental procedure is as follows.
# To investigate photo inducing death of GFP+ cells, RFP+ cells, and YFP+ cells via the photosensitizer, rose bengal, hematoporphyrin (Sigma-aldrich #5518) or 5-ALA (5-Aminolevulinic acid hydrochloric, Sigma-aldrich # A3785) was diluted with RPMI medium containing 10% FBS. 1 μM concentration of rose bengal, hematoporphyrin or 5-ALA was prepared. Further, GFP+ A549 cells, RFP+ A549 cells and YFP+ A549 cells selected from the 1-4 were pre-incubated at a density of 5×10^3 cells per well on 96-well, black, and clear bottom plates. A549 cells with pcDNA 3.1 vector injected thereto were cultured as control. Then, each of the photosensitizers as produced was applied or not applied to the preincubated cells in the preincubated cells which in turn were cultured for 4 hours. After 4 hours, the cells were washed three times with PBS buffer. Irradiation or non-irradiation of blue laser light (488 nm; radiation dose rate=2 J/cm^2) or yellow laser light (570 nm; radiation dose rate=2 J/cm^2) thereto was carried out for 5 seconds. After irradiation or non-irradiation, a fresh culture medium was added to the wells. The cells were cultured again for 24 hours. MTT analysis was then performed.
# eGFP+ and eGFP− cells = assay: Cytotoxicity with Ce6 and 650-nm red laser light, eGFP+ versus eGFP− cells; assay type: cell-based; settings: FIG. 5
molecule,measurement,setting,value
CCOC(=O)C1=Cc2c3nc(cc4nc(cc5[n-]c(cc6[n-]c2c(C)c6CC)c(C)c5CC)C(C)=C4CC)[C@@H](C)[C@]13CC.[Cl-].[Cl-].[Sn] (racemic) [tin ethyl etiopurpurin],"cytotoxicity in control, RFP+ and GFP+ cells",[1]; yellow laser light,cytotoxicity was seen only in RFP+ cells
same,degree of cytotoxicity in RFP+ cells versus GFP+ cells treated with rose bengal and blue laser light,"[1]; 1 μM, yellow laser light",the degree of cytotoxicity was higher
same,cell death level of RFP+ cells versus GFP+ cells treated with rose bengal and blue laser light,[2],the cell death level was higher
same,"RFP+ cell death compared to RFP− cell, by irradiation duration",RFP+ and RFP− 4T1 cells [3],RFP+ cell death increased considerably
same,RFP+ cell death by treatment concentration,RFP+ and RFP− 4T1 cells [4],increased remarkably
"Cl.NCC(=O)CCC(=O)O [5-ALA, 5-Aminolevulinic acid hydrochloride]",cell death effect in YFP+ cell and RFP+ cell,[5],significant cell death effect
same,cell death effect of RFP+ cell,[5],remarkable cell death effect
chlorine e6 [Ce6],"cytotoxicity in control, RFP+ and GFP+ cells",[1]; red laser light (650 nm),"control, RFP+, and GFP+ cells showed cytotoxicity"
same,cytotoxicity for eGFP+ versus eGFP− cells,eGFP+ and eGFP− cells,not different from each other
